# Where “and” joins values, the source holds several entries; their conditions need not be identical. Identical values can stand only once.
# Columns and labels:
# [1] = tested on: S. aureus (MDR00231); experiment: Agar well-diffusion antimicrobial sensitivity assay; type: cell-based, Staphylococcus aureus; conditions: Staphylococcus aureus, read-out: Inhibition Zone (IZ)
# [2] = tested on: S. epidermidis (MDR00223); experiment: as above; type: cell-based, Staphylococcus epidermidis; conditions: Staphylococcus epidermidis, read-out: Inhibition Zone (IZ)
# [3] = tested on: E. coli (MDR00501); experiment: as above; type: cell-based; conditions: Escherichia coli, read-out: Inhibition Zone (IZ)
# [4] = tested on: C. albicans100 (MDR00100); experiment: as above; type: cell-based, Candida albicans; conditions: Candida albicans, read-out: Inhibition Zone (IZ)
# [5] = tested on: C. albicans200 (MDR00200); experiment: as above; type: cell-based, Candida albicans; conditions: Candida albicans, read-out: Inhibition Zone (IZ)
# [6] = tested on: S. aureus (MDR00231); experiment: MIC and MBC by broth microdilution; type: cell-based, Staphylococcus aureus
# [7] = tested on: S. epidermidis (MDR00223); experiment: MIC and MBC by broth microdilution; type: cell-based, Staphylococcus epidermidis
# [8] = tested on: B. subtilis (MDR00423); experiment: MIC and MBC by broth microdilution; type: cell-based; conditions: B. subtilis; ratio in parentheses
# [9] = tested on: E. coli (MDR00501); experiment: MIC and MBC by broth microdilution; type: cell-based
# [10] = tested on: A. baumannii (MDR00521); experiment: MIC and MBC by broth microdilution; type: cell-based; conditions: ratio in parentheses
# [11] = tested on: K. pneumoniae (MDR00244); experiment: MIC and MBC by broth microdilution; type: cell-based; conditions: ratio in parentheses
# [12] = tested on: C. albicans100 (MDR00100); experiment: MIC and MFC by broth microdilution; type: cell-based, Candida albicans
# [13] = tested on: C. albicans200 (MDR00200); experiment: MIC and MFC by broth microdilution; type: cell-based, Candida albicans
# [14] = tested on: S. aureus biofilm; experiment: Staphylococcus biofilm mass reduction; type: cell-based; conditions: at their MIC
# [15] = tested on: S. epidermidis biofilm; experiment: Staphylococcus biofilm mass reduction; type: cell-based; conditions: at their MIC
# [16] = tested on: S. aureus; experiment: Single-step resistance selection; type: cell-based, Staphylococcus aureus; conditions: 4 × MIC, 48 h
# [17] = tested on: S. epidermidis; experiment: Single-step resistance selection; type: cell-based, Staphylococcus epidermidis; conditions: 4 × MIC, 48 h
# [18] = tested on: B. subtilis; experiment: Single-step resistance selection; type: cell-based; conditions: 4 × MIC, 48 h
# [19] = tested on: E. coli; experiment: Single-step resistance selection; type: cell-based; conditions: 4 × MIC, 48 h
# [20] = tested on: A. baumannii; experiment: Single-step resistance selection; type: cell-based; conditions: 4 × MIC, 48 h
# [21] = tested on: K. pneumoniae; experiment: Single-step resistance selection; type: cell-based; conditions: 4 × MIC, 48 h
# [22] = tested on: C. albicans100; experiment: Single-step resistance selection; type: cell-based, Candida albicans; conditions: 4 × MIC, 48 h
# [23] = tested on: C. albicans200; experiment: Single-step resistance selection; type: cell-based, Candida albicans; conditions: 4 × MIC, 48 h
# [24] = tested on: A. baumannii; experiment: Checkerboard combination assay with Ciprofloxacin; type: cell-based
# [25] = tested on: C. albicans100; experiment: Checkerboard combination assay with Ketoconazole; type: cell-based, Candida albicans
# [26] = tested on: C. albicans200; experiment: Checkerboard combination assay with Ketoconazole; type: cell-based, Candida albicans
# [27] = tested on: RBCs; experiment: Hemolytic assay; type: cell-based; conditions: human RBCs; compounds 1.0 mg/mL; Triton X-100 0.1% v/v; 37 °C, 35 min
# [28] = biological target: E. coli DNA gyrase (Escherichia coli, UniProt P0AES4+P0AES6); experiment: DNA gyrase inhibition; type: biochemical
# Chain of E. coli DNA gyrase (P0AES4 whole entry, one chain of several): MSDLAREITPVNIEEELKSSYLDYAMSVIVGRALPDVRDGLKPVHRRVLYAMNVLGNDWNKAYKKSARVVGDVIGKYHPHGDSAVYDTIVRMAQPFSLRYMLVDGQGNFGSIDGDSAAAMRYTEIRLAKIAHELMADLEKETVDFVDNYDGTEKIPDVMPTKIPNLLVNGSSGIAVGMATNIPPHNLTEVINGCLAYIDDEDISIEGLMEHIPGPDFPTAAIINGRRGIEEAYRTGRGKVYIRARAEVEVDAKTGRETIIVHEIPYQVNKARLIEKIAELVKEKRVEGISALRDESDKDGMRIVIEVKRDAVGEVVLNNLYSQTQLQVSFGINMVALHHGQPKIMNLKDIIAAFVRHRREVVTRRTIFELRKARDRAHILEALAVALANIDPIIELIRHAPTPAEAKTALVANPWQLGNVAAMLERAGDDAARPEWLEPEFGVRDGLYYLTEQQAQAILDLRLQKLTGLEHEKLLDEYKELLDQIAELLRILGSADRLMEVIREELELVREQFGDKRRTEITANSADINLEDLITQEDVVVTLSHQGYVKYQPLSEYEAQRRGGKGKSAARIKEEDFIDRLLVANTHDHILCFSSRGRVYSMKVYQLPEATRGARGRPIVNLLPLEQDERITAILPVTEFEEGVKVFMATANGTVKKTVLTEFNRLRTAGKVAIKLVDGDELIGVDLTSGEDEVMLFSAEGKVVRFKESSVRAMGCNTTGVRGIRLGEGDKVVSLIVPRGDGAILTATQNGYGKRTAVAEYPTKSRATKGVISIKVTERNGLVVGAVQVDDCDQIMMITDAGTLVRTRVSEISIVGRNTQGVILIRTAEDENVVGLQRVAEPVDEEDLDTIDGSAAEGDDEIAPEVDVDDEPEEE
# [29] = biological target: T1, dihydrofolate reductase (DHFR) (Homo sapiens, UniProt P00374); experiment: DHFR inhibition; type: biochemical
# T1 sequence (P00374 1-187): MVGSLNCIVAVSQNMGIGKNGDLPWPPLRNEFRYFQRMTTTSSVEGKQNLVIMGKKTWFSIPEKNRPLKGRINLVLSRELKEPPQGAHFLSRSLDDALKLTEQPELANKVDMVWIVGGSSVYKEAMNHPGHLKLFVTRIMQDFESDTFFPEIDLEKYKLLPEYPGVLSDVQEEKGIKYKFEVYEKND
# [30] = In vitro cytotoxicity on normal cell line; type: cell-based, mouse; conditions: mouse, BNL normal liver cells
# [31] = tested on: BNL: mouse normal liver cells; experiment: In vitro cytotoxicity on normal cell line; type: cell-based
# [32] = In vitro cytotoxicity on normal cell line; type: cell-based, green monkey; conditions: green monkey, Vero kidney cells
# [33] = tested on: Vero: green monkey kidney; experiment: In vitro cytotoxicity on normal cell line; type: cell-based
# [34] = In vitro cytotoxicity on normal cell line; type: cell-based, rat; conditions: rat, H9C2 heart/myocardium cells
# [35] = tested on: H9C2: rat heart/myocardium; experiment: In vitro cytotoxicity on normal cell line; type: cell-based
# [36] = tested on: Gram-negative bacteria; experiment: MIC broth microdilution, Gram-negative panel; type: cell-based; conditions: Gram-negative bacteria used in this study
# [37] = tested on: clinical pathogenic isolates; experiment: Single-step resistance selection, whole panel; type: cell-based; conditions: 4 × MIC
# [38] = Candida albicans, read-out: MIC (mean ± SEM)
smiles,measurement,setting,value
"Cc1c(NN=C(C#N)C2=NC(=O)CS2)c(=O)n(-c2ccccc2)n1C [Compound 13, N-(1,5-Dimethyl-3-oxo-2-phenyl-2,3-dihydro-1H-pyrazol-4-yl)-4-oxo-4,5-dihydrothiazole-2-carbohydrazonoyl cyanide]",zone of inhibition at 100000 µg/mL,[1],27 ± 0.82 mm
same,zone of inhibition at 100000 µg/mL,[2],25 ± 0.45 mm
same,zone of inhibition at 100000 µg/mL,[3],28 ± 0.55 mm
same,zone of inhibition at 100000 µg/mL,[4],29 ± 0.25 mm
same,zone of inhibition at 100000 µg/mL,[5],28 ± 0.36 mm
same,MBC/MIC,"[6]; S. aureus, ratio in parentheses",1
same,MIC,"[6]; Staphylococcus aureus, read-out: MIC (mean ± SEM)",0.98 ± 0.2 µg/mL
same,MBC/MIC,"[7]; S. epidermidis, ratio in parentheses",1
same,MIC,"[7]; Staphylococcus epidermidis, read-out: MIC (mean ± SEM)",0.99 ± 0.3 µg/mL
same,MBC/MIC,[8],2
same,MBC/MIC,"[9]; E. coli, ratio in parentheses",0.5
same,MIC,"[9]; Escherichia coli, read-out: MIC (mean ± SEM)",0.49 ± 0.2 µg/mL
same,MBC/MIC,[10],0.5
same,MBC/MIC,[11],2
same,MFC/MIC,"[12]; C. albicans100, ratio in parentheses",2
same,MIC,[12]; [38],0.99 ± 0.2 µg/mL
same,MFC/MIC,"[13]; C. albicans200, ratio in parentheses",2
same,MIC,[13]; [38],0.98 ± 0.3 µg/mL
same,reduction of biofilm formation,[14],51.2%
same,reduction of biofilm formation,[15],47.8%
same,Single-step resistance frequency (mutation frequency),[16],2.73 × 10^–8
same,Single-step resistance frequency (mutation frequency),[17],4.15 × 10^–8
same,Single-step resistance frequency (mutation frequency),[18],1.66 × 10^–9
same,Single-step resistance frequency (mutation frequency),[19],2.90 × 10^–8
same,Single-step resistance frequency (mutation frequency),[20],2.71 × 10^–7
same,Single-step resistance frequency (mutation frequency),[21],3.22 × 10^–8
same,Single-step resistance frequency (mutation frequency),[22],2.92 × 10^–9
same,Single-step resistance frequency (mutation frequency),[23],3.20 × 10^–8
same,combination effect,[24],S (S: synergism)
same,fractional inhibitory concentration index (FICI),[24],0.5
same,combination effect,[25],S (S: synergism)
same,fractional inhibitory concentration index (FICI),[25],0.5
same,combination effect,[26],S (S: synergism)
same,fractional inhibitory concentration index (FICI),[26],0.5
same,%lysis of RBCs,[27],15.22% and 15.22 ± 0.43%
same,IC50,[28],31.64 ± 0.17 µM
same,IC50,[29],2.67 ± 0.14 µM
same,IC50 at 72 h,[30],79.5 ± 1.67 µM
same,Selectivity index against DHFR,[31]; IC50 of BNL / IC50 of DHFR,29.78
same,Selectivity index against DNA gyrase,[31]; IC50 of BNL / IC50 of DNA gyrase,2.51
same,IC50 at 72 h,[32],74.8 ± 2.12 µM
same,Selectivity index against DHFR,[33]; IC50 of Vero / IC50 of DHFR,28.02
same,Selectivity index against DNA gyrase,[33]; IC50 of Vero / IC50 of DNA gyrase,2.36
same,IC50 at 72 h,[34],61.6 ± 1.64 µM
same,Selectivity index against DHFR,[35]; IC50 of H9C2 / IC50 of DHFR,23.06
same,Selectivity index against DNA gyrase,[35]; IC50 of H9C2 / IC50 of DNA gyrase,1.94
same,"MIC, range over panel",[36],0.43 to 0.98 µg/mL
same,"mutation frequency, range over panel",[37],2.71 × 10^–7 to 2.92 × 10^–9

# — article PMC8851638 (ACS Omega, 2022)
